Test results as given in patent publication US11912788B2, “Probiotic molecules for reducing pathogen virulence” (priority 2017, dated 2024).

How the values were obtained:
[1] = test system: HilA; experiment: qPCR of HilA down-regulation in Salmonella, reference gene 16S; assay type: cell-based, Salmonella enteric typhimurium DT104; settings: individual synthetic biopeptides, 50 μg per assay
Source text: The cell-free supernatant was separated using Sephadex G75 resin. The samples were separated and collected into fractions: Fraction 1 (>163000 Da), Fraction 2 (163000-14500 Da), Fraction 3(14500-1300 Da), Fraction 4 (1300-110 Da), Fraction 5 (110-10 Da). The samples were collected and assayed by qPCR using Salmonella enteric typhimurium DT104 strain. The down-regulation of HilA was compared to the reference gene 16S.
The active fraction from G75 size exclusion chromatography was further separated using reverse phase chromatography. The fractions from the reverse phase: Fraction 1 (0-2 min), Fraction 2 (2-4 min), Fraction 3 (4-16 min), Fraction 4 (16-32 min), Fraction 5 (32-40 min), Fraction 6 (40-58 min). The fractions were dried and neutralized to remove acetonitrile and trifluoroacetic acid from the solvent. The dried fractions were assayed using the same qPCR assay conditions as above. The fractions were analyzed by de novo sequencing at the University of Guelph Advance Analytical center. The peptides from the active fractions of 6 batches were compared and common peptides from batches were deduced.

[2] = test system: HylA; settings: individual synthetic biopeptides, 50 μg per assay; reference gene GapA
Experimental: The La-5 cell-free supernatant used for these experiments was batch D4. […] Strain 1 alias UPEC99 and strain 2 alias UPEC804. The strains were cultured on LB agar. Two different media were tested LB and artificial urine medium.
The UPEC were grown for 4 hours in the presence of cell-free supernatant. The cells were harvested and the RNA was extracted. The RNA was treated with DNAse I to remove genomic DNA. The RNA was used as a template to make cDNA. The cDNA was assayed by qPCR and the gene expression was normalized to a reference gene and compared to a without cell-free media control.
The synthetic bio-peptides were analyzed at 50 μg per assay.

[3] = test system: Staphylococcus aureus (strain alias LA-414M SPA t034); experiment: Cefoxitin MIC testing with and without cell-free supernatant; assay type: cell-based; settings: MRSA LA 414M, 0 mg/mL dried cell-free (cefoxitin only)
Source text: (§1) Three methicillin resistant Staphylococci (MRS) strains were used in these experiments: 1) Staphylococcus pseudintermedius (strain alias C260 22-2011 dtqa), a clinical isolate from a dog skin infection; 2) Staphylococcus aureus (strain alias LA-414M SPA t034), a livestock-associated strain isolated from beef purchased from a grocery store in Charlottetown, PEI, Canada; and 3) Staphylococcus aureus (strain alias 81M SPA t008), isolated from poultry meat purchased from a grocery store in Charlottetown, PEI, Canada. All three MRS strains were provided by the Atlantic Veterinary College (AVC) at the University of Prince Edward Island. The methicillin-resistance of these strains was confirmed by AVC staff using an oxacillin disk diffusion method. The strains were originally cultured on sheep blood agar slants, and then transferred to lysogeny broth agar plates. Cefoxitin resuspended in methanol was used for antibiotic resistance testing, and growth was tested in two different media types, standard Lysogeny Broth and standard BBL™ Cation-Adjusted Mueller-Hinton Medium (Becton, Dickinson and Company). The minimum inhibitory concentrations (MICs) of the cefoxitin was determined for each strain in each respective medium in the presence and absence of the cell-free supernatant. Assays were performed according to the Clinical and Laboratory Standards Institute (CLSI) guidelines for MIC testing of Staphylococcal species [CLSI, 2015] as well as the European Committee for Antimicrobial Susceptibility Testing (EUCAST) of the European Society of Clinical Microbiology and Infectious Diseases [EUCAST, 2003].
(§2) The protocol for MIC testing was as follows. The cell-free supernatants were resuspended in the respective media and filter sterilized through a […] pore size filter. The required concentration of dried cell free supernatant was weighed and added at concentrations ranging from 0-60 mg/mL. Cefoxitin was added to obtain final concentrations ranging from 0-250 μg/mL. […] Following incubation, microplates were read at 600 nm using a microplate reader. […]

[4] = test system: Staphylococcus pseudintermedius (strain alias C260 22-2011 dtqa); experiment: as above; assay type: cell-based; settings: MSRP C260; Lysogeny Broth; 0 mg/mL dried cell-free (cefoxitin only)
Source text: as §1, §2

[5] = test system: Staphylococcus aureus (strain alias 81M SPA t008); experiment: Cefoxitin MIC testing with and without cell-free supernatant or its size exclusion fractions; assay type: cell-based
Source text: as §1, §2

HLLPLP
Fold down-regulation HilA [1]: 2.93 Fold
Fold down-regulation HylA [2]: 2.64 Fold

CO[C@@]1(NC(=O)Cc2cccs2)C(=O)N2C(C(=O)O)=C(COC(N)=O)CS[C@@H]21 [Cefoxitin]
Range of Cefoxitin concentration to inhibition growth to O.D. < 0.1 (cefoxitin MIC) ([3]; Lysogeny Broth): 30 to 40 µg/mL
Range of Cefoxitin concentration to inhibition growth to O.D. < 0.1 (cefoxitin MIC) ([3]; Mueller-Hinton Broth): 50 to 60 µg/mL
Range of Cefoxitin concentration to inhibition growth to O.D. < 0.1 (cefoxitin MIC) [4]: 125 to 175 µg/mL
Range of Cefoxitin concentration to inhibition growth to O.D. < 0.1 (cefoxitin MIC) ([5]; MRSA 81M, Lysogeny Broth, 0 mg/mL dried cell-free (cefoxitin only)): 75 to 125 µg/mL
Range of Cefoxitin concentration to inhibition growth to O.D. < 0.1 (cefoxitin MIC) ([5]; MRSA 81M, Mueller-Hinton Broth, 0 mg/mL dried cell-free (cefoxitin only)): 75 to 100 µg/mL
Range of Cefoxitin concentration to inhibition growth to O.D. < 0.1 (cefoxitin MIC) ([5]; Table 4, Staphylococcus aureus 81M, Untreated (0 mg/mL), cefoxitin only): 60 to 75 µg/mL

YPVEPF
Fold down-regulation HilA [1]: 0.68 Fold
Fold down-regulation HylA [2]: 1.03 Fold

CVLPPK
Fold down-regulation HilA [1]: 3.75 Fold
Fold down-regulation HylA [2]: 3.20 Fold

MALPPK
Fold down-regulation HilA [1]: 19.56 Fold
Fold down-regulation HylA [2]: 9.06 Fold

YPPGGP
Fold down-regulation HilA [1]: 2.93 Fold
Fold down-regulation HylA [2]: 3.56 Fold

LKPTPEGD
Fold down-regulation HilA [1]: 11.08 Fold
Fold down-regulation HylA [2]: 4.69 Fold
